Measurements as given in patent US6726894B1, “Transport vehicles for macromolecules” (priority 1995, dated 2004).

Experiments:
COS-7 cells [1] = test: Transfection of COS-7 cells (CAT-assay); type: cell-based
COS-7 cells [2] = test: Toxicity study, residual protein content of COS-7 cells

## CCCCCCCCC=CCCCCCCCCC(CCCCCCCCC=CCCCCCCCC)c1cc[n+](C)cc1.[Cl-] (stereo not drawn) [SAINT-2, 1-Methyl-4-(19-cis,cis-heptatritiaconta-9,28-dienyl)pyridinium Chloride]
COS-7 cells [1]; COS-7 cells, FIG. 1
  transfection efficiency with respect to DOTMA/DOPE vesicles: eight
COS-7 cells [1]; dependent on the cell type
  transfection efficiency with respect to Lipofectine: at least eight
COS-7 cells [2]
  lipid concentration from which decrease of protein content was observed: 90 µM
  toxicity compared with DOTMA-DOPE: clearly less toxic
COS-7 cells [2]; decrease from 2 mg/ml
  residual protein content after decrease: 1.75 mg/mL
